Experimental findings from patent US7465745B2, “Cathepsin S inhibitors” (Boehringer Ingelheim Pharmaceuticals, Inc., priority 2003, dated 2008) are described below.

Bounds are passed on as bounds.

This test concerns the target T1, Human recombinant cathepsin S (Homo sapiens, UniProt P25774).
T1 construct: made in house; host or cells: Sf9 insect cells (baculovirus, pFastBac1)
Description: Inhibition of Cathepsin S. Type of test: biochemical. The conditions noted are these: 10 nM enzyme, pH 6.5, 37° C., fluorescence 360/460 nm.
Description: U937 RNA was subjected to reverse transcriptase/polymerase chain reaction with primer A (5′[sequence] 3′) and primer B (5′[sequence] 3′) designed to specifically amplify the cathepsin S cDNA. The resulting 900 bp DNA fragment was subcloned into pGEM-T (Promega) and sequenced to confirm its identity. This construct was used for all subsequent manipulations.
The ligation mixture was used to transform DH5a competent cells (GibcoBRL) and plated on LB plates containing 100 ug/ml ampicillin. Colonies were grown in overnight cultures of LB media containing 50 ug/ml Ampicillin, plasmid DNA isolated and correct insert confirmed by restriction enzyme digestion. Recombinant pFastBac donor plasmid was transformed into DH10Bac competent cells (GibcoBRL). Large white colonies were picked from LB plates containing 50 ug/ml kanamycin, 7 ug/ml gentamicin, 10 ug/ml tetracycline, 100 ug/ml Bluo-gal, and 40 ug/ml IPTG. DNA was isolated and used to transfect Sf9 insect cells using CellFECTIN reagent (GibcoBRL). Cells and supernatant were harvested after 72 hours. Viral supernatant was passaged twice and presence of Cat S confirmed by PCR of the supernatant. […]
Human recombinant cathepsin S expressed in Baculovirus is used at a final concentration of 10 nM in buffer. […] Compound activity is measured by diminished fluorescence compared to DMSO control when read at 360 nm excitation and 460 nm emission.

T1 sequence (P25774 115-331): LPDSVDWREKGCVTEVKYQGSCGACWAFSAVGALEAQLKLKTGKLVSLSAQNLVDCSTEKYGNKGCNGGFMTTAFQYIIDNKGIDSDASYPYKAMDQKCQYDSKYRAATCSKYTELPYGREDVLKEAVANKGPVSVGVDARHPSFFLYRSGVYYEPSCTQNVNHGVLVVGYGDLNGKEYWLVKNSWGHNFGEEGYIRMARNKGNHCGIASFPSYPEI

For the molecule `CCC(C)(C)CC[C@@H](NC(=O)N1CCOCC1)C(=O)NC1(C#N)CCN(C)CC1` [Morpholine-4-carboxylic acid [(R)-1-(4-cyano-1-methyl-piperidine-4-ylcarbamoyl)-4,4-dimethyl-hexyl]-amide], the half-inhibitory concentration (IC50) was more than 100 nM.

A word on the IC50: it is the concentration that gives 50% inhibition.
